Experimental data reported in patent publication US11834451B2 (priority 2021, dated 2023).
Like-named read-outs stand apart in the source and are kept apart here.

What was measured:
[1] = in vitro; settings: human
[2] = system: EV-D68; assay: microbe, parasite or virus in culture; format: cell-based, enterovirus D68 (EV-D68); settings: Enterovirus D, EVD68, RD
[3] = system: EV-A71; assay: microbe, parasite or virus in culture; format: cell-based, enterovirus A71 (EV-A71); settings: Enterovirus A, EVA71, RD
[4] = system: CVB3 Nancy virus; assay: microbe, parasite or virus in culture; format: cell-based, coxsackievirus B3 (CVB3); settings: Enterovirus B, CVB3, Vero, read-out: EC50, Anti-CVB3 in Vero cells
[5] = system: EV-D68, EV-A71, and CVB3; assay: organism not typed; format: cell-based
[6] = system: Vero cells; settings: African green monkey
[7] = system: RD cells; settings: human
[8] = CC50, in RD cells (Anti-EV-A71)
[9] = read-out: EC50, Anti-EV-D68 US/KY/14-18953 in RD cells
[10] = read-out: EC50, Anti-EV-A71 Tainan/4643/1998 in RD cells

| Structure (SMILES) | CC50 [1, 8] [nM] | EC50 [2, 9] [nM] | EC50 [3, 10] [nM] | EC50 [4] [nM] | other results |
| --- | --- | --- | --- | --- | --- |
| COCCNC(=O)c1cc(C2CC2)nc2c1cnn2C(C)C [Compound 7a, 6-cyclopropyl-N-(2-methoxyethyl)-1-(propan-2-yl)-1H-pyrazolo[3,4-b]pyridine-4-carboxamide] | 178000 |  |  |  |  |
| CC(C)n1ncc2c(C(=O)NCCN3CCCC3)cc(C3CC3)nc21 [Compound 7b, 6-cyclopropyl-1-(propan-2-yl)-N-[2-(pyrrolidin-1-yl)ethyl]-1H-pyrazolo[3,4-b]pyridine-4-carboxamide] | 46500 | 100 | 200 | 200 |  |
| CCN(CC)CCNC(=O)c1cc(C2CC2)nc2c1cnn2C(C)C [Compound 7c, 6-cyclopropyl-N-[2-(diethylamino)ethyl]-1-(propan-2-yl)-1H-pyrazolo[3,4-b]pyridine-4-carboxamide] |  | 400 | 300 | 500 | EC50 values in words (summary across viruses) [5]: submicromolar |
| CC(C)n1ncc2c(C(=O)NC3CNC3)cc(C3CC3)nc21 [Compound 7e, N-(azetidin-3-yl)-6-cyclopropyl-1-(propan-2-yl)-1H-pyrazolo[3,4-b]pyridine-4-carboxamide] |  | 1400 |  |  |  |
| CC(CN(C)C)NC(=O)c1cc(C2CC2)nc2c1cnn2C(C)C (stereo not drawn) [Compound 7f, 6-cyclopropyl-N-[1-(dimethylamino)propan-2-yl]-1-(propan-2-yl)-1H-pyrazolo[3,4-b]pyridine-4-carboxamide] | 72600 | 100 | 100 | 40 | CC50 [6]: > 300000 nM |
| CC(C)n1ncc2c(C(=O)NC3CCN(C)C3)cc(C3CC3)nc21 (stereo not drawn) [Compound 7g, 6-cyclopropyl-N-(1-methylpyrrolidin-3-yl)-1-(propan-2-yl)-1H-pyrazolo[3,4-b]pyridine-4-carboxamide] | 20700 | 100 | 100 | 100 | CC50 ([1]; CC50, in RD cells (Anti-EV-D68)): 20700 nM; EC50 ([5]; read-out: EC50 (text summary, virus not singled out)): 100 nM |
| CC(C)n1ncc2c(C(=O)NCCN)cc(C3CC3)nc21 [Compound 7i, N-(2-aminoethyl)-6-cyclopropyl-1-(propan-2-yl)-1H-pyrazolo[3,4-b]pyridine-4-carboxamide] |  | 400 | 400 | 900 |  |
| CC(CN)NC(=O)c1cc(C2CC2)nc2c1cnn2C(C)C (stereo not drawn) [Compound 7j, N-(1-aminopropan-2-yl)-6-cyclopropyl-1-(propan-2-yl)-1H-pyrazolo[3,4-b]pyridine-4-carboxamide] |  | 300 | 600 | 300 |  |
| CCN(CC)CCCNC(=O)c1cc(C2CC2)nc2c1cnn2C(C)C [Compound 7k, 6-cyclopropyl-N-[3-(diethylamino)propyl]-1-(propan-2-yl)-1H-pyrazolo[3,4-b]pyridine-4-carboxamide] |  | 1900 | 6100 | 1700 |  |
| CC(C)n1ncc2c(C(=O)NCCCN(C)C)cc(C3CC3)nc21 [Compound 7l, 6-cyclopropyl-N-[3-(dimethylamino)propyl]-1-(propan-2-yl)-1H-pyrazolo[3,4-b]pyridine-4-carboxamide] |  | 1200 | 1800 | 400 | CC50 [6]: > 200000 nM |
| CNCCCNC(=O)c1cc(C2CC2)nc2c1cnn2C(C)C [Compound 7m, 6-cyclopropyl-N-[3-(methylamino)propyl]-1-(propan-2-yl)-1H-pyrazolo[3,4-b]pyridine-4-carboxamide] | 183000 | 1700 | 5300 | 1600 |  |
| CC(C)c1cc(C(=O)NCCO)c2cnn(C(C)C)c2n1 [Compound 10b, N-(2-hydroxyethyl)-1,6-bis(propan-2-yl)-1H-pyrazolo[3,4-b]pyridine-4-carboxamide] |  |  |  |  | CC50 [7]: > 100000 nM |
| CC(C)c1cc(C(=O)NCCN)c2cnn(C(C)C)c2n1 [Compound 10e, N-(2-aminoethyl)-1,6-bis(propan-2-yl)-1H-pyrazolo[3,4-b]pyridine-4-carboxamide] | 170000 | 600 | 600 | 900 |  |
| CC(CN)NC(=O)c1cc(C(C)C)nc2c1cnn2C(C)C (stereo not drawn) [Compound 10f, N-(1-aminopropan-2-yl)-1,6-bis(propan-2-yl)-1H-pyrazolo[3,4-b]pyridine-4-carboxamide] | 118000 | 400 | 500 | 600 |  |
| CC(C)n1ncc2c(C(=O)NCCN(C)C)cc(C(C)(C)C)nc21 [Compound 11a, 6-tert-butyl-N-[2-(dimethylamino)ethyl]-1-(propan-2-yl)-1H-pyrazolo[3,4-b]pyridine-4-carboxamide] | 31400 | 100 | 40 | 100 |  |
| CC(C)n1ncc2c(C(=O)NCCN)cc(C(C)(C)C)nc21 [Compound 11b, N-(2-aminoethyl)-6-tert-butyl-1-(propan-2-yl)-1H-pyrazolo[3,4-b]pyridine-4-carboxamide] | 24600 | 100 | 200 | 100 |  |
| Cc1cc(C(=O)NCCN(C)C)c2cnn(C(C)C)c2n1 [Compound 12a, N-[2-(dimethylamino)ethyl]-6-methyl-1-(propan-2-yl)-1H-pyrazolo[3,4-b]pyridine-4-carboxamide] |  | 400 | 100 | 200 | CC50 [6]: > 300000 nM |
| Cc1cc(C(=O)NCCN(C)C)c2cnn(C3CCCC3)c2n1 [Compound 13, 1-cyclopentyl-N-[2-(dimethylamino)ethyl]-6-methyl-1H-pyrazolo[3,4-b]pyridine-4-carboxamide] |  | 11100 |  |  |  |
| CCCn1ncc2c(C(=O)NCCN(C)C)cc(C)nc21 [Compound 14, N-[2-(dimethylamino)ethyl]-6-methyl-1-propyl-1H-pyrazolo[3,4-b]pyridine-4-carboxamide] |  | 48400 |  |  |  |
| CCn1ncc2c(C(=O)NCCN(C)C)cc(C3CC3)nc21 [Compound 16, 6-cyclopropyl-N-[2-(dimethylamino)ethyl]-1-ethyl-1H-pyrazolo[3,4-b]pyridine-4-carboxamide] |  | 1700 | 1200 | 1800 | CC50 [6]: > 300000 nM; EC50 values in words (summary across viruses) [5]: single-digit micromolar range |
| Cc1nn(C(C)(C)C)c2nc(C3CC3)cc(C(=O)NCCN(C)C)c12 [Compound 18a, 1-tert-butyl-6-cyclopropyl-N-[2-(dimethylamino)ethyl]-3-methyl-1H-pyrazolo[3,4-b]pyridine-4-carboxamide] | 45200 | 800 | 3500 | 1800 |  |
| CNCCNC(=O)c1cc(C2CC2)nc2c1c(C)nn2C(C)(C)C [Compound 18b, 1-tert-butyl-6-cyclopropyl-3-methyl-N-[2-(methylamino)ethyl]-1H-pyrazolo[3,4-b]pyridine-4-carboxamide] |  | 1100 | 8400 | 2900 |  |
| Cc1cc(C(=O)NCCN(C)C)c2c(C)nn(C(C)(C)C)c2n1 [Compound 19, 1-tert-butyl-N-[2-(dimethylamino)ethyl]-3,6-dimethyl-1H-pyrazolo[3,4-b]pyridine-4-carboxamide] |  | 1000 | 7400 | 2100 | EC50 ([2]; read-out: EC50, EV-D68 US/IL/14-18952 (Clade B2)): 700 nM; EC50 ([2]; read-out: EC50, EV-D68 US/IL/14-18956 (Clade B2)): 400 nM; EC50 ([2]; read-out: EC50, EV-D68 US/KY/14-18953 (Clade D)): 1000 nM; EC50 ([2]; read-out: EC50, EV-D68 US/MO/14-18947 (Clade B1)): 400 nM; EC50 ([2]; read-out: EC50, EV-D68 US/MO/14-18949 (Clade B1)): 700 nM; CC50 ([1]; CC50 (EV-A71 A71 MP4 row group)): 236000 nM; CC50 ([1]; CC50 (EV-A71 Tainan/4643/1998)): 236000 nM; CC50 ([1]; CC50 (EV-A71 USA/CT/2016-19519)): 236000 nM; selectivity index across EV-D68 and EV-A71 strains tested [5]: > 100; EC50 ([5]; RD, read-out: EC50 values range against all EV-D68 and EV-A71 strains tested): 400 to 7400 nM; EC50 ([3]; read-out: EC50, EV-A71 A71 MP4): 2000 nM; EC50 ([3]; read-out: EC50, EV-A71 Tainan/4643/1998): 7400 nM; EC50 ([3]; read-out: EC50, EV-A71 USA/CT/2016-19519): 1300 nM |
| CCCn1ncc2c(C(=O)NCCN(C)C)cc(C3CC3)nc21 [Compound 20, 6-cyclopropyl-N-[2-(dimethylamino)ethyl]-1-propyl-1H-pyrazolo[3,4-b]pyridine-4-carboxamide] | 57700 | 1200 | 2000 | 2000 | EC50 values in words (summary across viruses) [5]: low single-digit or submicromolar |
| CCC(C)n1ncc2c(C(=O)NCCN(C)C)cc(C3CC3)nc21 (stereo not drawn) [Compound 21, 1-(butan-2-yl)-6-cyclopropyl-N-[2-(dimethylamino)ethyl]-1H-pyrazolo[3,4-b]pyridine-4-carboxamide] |  | 200 | 100 | 100 | EC50 values in words (summary across viruses) [5]: low single-digit or submicromolar |
| CC(C1CC1)n1ncc2c(C(=O)NCCN(C)C)cc(C3CC3)nc21 (stereo not drawn) [Compound 22, 6-cyclopropyl-1-(1-cyclopropylethyl)-N-[2-(dimethylamino)ethyl]-1H-pyrazolo[3,4-b]pyridine-4-carboxamide] |  | 700 | 200 | 1900 | EC50 values in words (summary across viruses) [5]: low single-digit or submicromolar |
